The test system of series [1] is NOD mice. Description: Development of diabetes in NOD mice treated with CD154 peptides. The series is classed as in vivo, mouse. As to conditions: weekly iv injection from 6 weeks of age, diabetic = blood glucose above 250 mg/dL on 3 consecutive measures. How it is done:
(§1) Peptides were designed based on the amino acid sequence of mouse CD154 protein (SEQ ID NO:1) in the SwissPro database. […] Weekly after the initial injection, another 100 ug of peptide (or 100 ul of saline in the case of the Control mice) was injected into the tail vein. At 10 weeks of age, mice were monitored for diabetes, as indicated by a blood glucose level greater than 250 mg/dL for three consecutive days. During this time, blood was also taken from the tail vein, or by sub-mandibular venal puncture, and the level of CD4+ and CD8+ cells determined by flow cytometry using antibodies for CD4 protein and CD8 protein.
NOD mice at 6 weeks of age were injected weekly iv with 25 ug (1 mg/kg) of each peptide through 45 weeks. Each cohort included 10 animals. Blood glucoses were measured and levels at 250 mg/dl or higher for 3 consecutive measures were considered diabetic. […] (This is showing in FIG. 1).

Series [2] concerns ApoE-/- mice. The experiment in a line: Atherosclerotic changes in ApoE-/- mice on high fat diet (en-face Sudan IV, Paigen method, trichrome). It counts as in vivo, mouse. Here is the method: ApoE−/− mice were fed a high fat diet for 16 weeks. Mice were randomly assigned to receive dose of 1 mg/kg of KGYY6 (6-mer—SEQ ID NO:4) by IV tail injection, once a week for a period of 4 weeks. Control mice received vehicle only. Atherosclerosis was investigated by several methods. […] FIG. 28A is an image of KGYY6 treated aortic en-face Sudan IV staining and FIG. 28B is an image of control (untreated) aortic en-face Sudan staining.
Further, measurement of plaque area and morphology was performed using the Paigen method. This method obtains sequential 5 um aortic cross sections from the aortic root beginning at the valve leaflets into the ascending aorta. At 50 um intervals, slides are stained after which the area of atherosclerotic lesion is measured. Individual plaque area measurements are plotted against the micrometer intervals and a curve is established, with the area under the curve (AUC) giving the total volume of plaque.
ApoE−/−mice (n=16, 4 male and 4 female per group), fed a 60% high fat diet (Research Diets) for 16 weeks. 8 mice were injected with 1 mg/kg KGYY6 and […] with vehicle alone. Glucose tolerance testing (GTT) was performed by fasting 6 hours, followed by intraperitoneal injection of 1 g/kg body weight glucose in water. Both blood glucose and serum insulin were measured at 0, 15 min, 30 min, 60 min and 2 hours.

For series [3], the system named is ApoE-/- mice. Description: LDL cholesterol in ApoE-/- mice. The series is classed as in vivo, mouse. As to conditions: 1 mg/kg IV once a week for 4 weeks, treated versus untreated. How it is done:
In this study, six ApoE−/− mice received a normal chow diet from 0 to 20 weeks of age. At 20 weeks of age, three mice were randomly assigned to receive dose of 1 mg/kg of KGYY6 (6-mer—SEQ ID NO:4) by IV tail injection, once a week for a period of 4 weeks. Control mice received vehicle only.

Series [4] concerns CD3+CD4+CD40+ splenic cells (Th40 cells). The experiment in a line: In vitro cytokine production of splenic Th40 cells, flow cytometry. It counts as cell-based, mouse. As to conditions: splenic lymphocytes of ApoE and C57BL/6 mice, overnight with varying concentrations of peptide. Here is the method:
Spleens from ApoE mice and C57BL/6 mice were processed for lymphocytes. ApoE−/− and C57BL/6 mice were fed a 60% high fat diet (research diet) for 1 week. Splenic lymphocytes were treated with 6-mer in vitro for 24 hours. Cells were placed in media overnight in the presence of varying concentrations of 6-mer peptides. The following morning, Brefeldin A was administered for 4 hours. All cells were stained for CD3, CD4, CD40 (Th40 cells) and measured by use of flow cytometry for their production of IL2, INFγ, and IL17a.
Spleens from ApoE mice and C57BL/6 mice were processed for lymphocytes, placed in media overnight in the presence of varying concentrations of KGYY6 peptide. BrefeldinA was administered for four hours.
(In general: A flow cytometer gives signals particle by particle.)

The subject of another series is B cells. The experiment in a line: Binding of FITC-labeled 15-mer peptide to B cells, flow cytometry. On the set-up: species or system mouse. As to conditions: B cells from spleens of NOD mice, 90% CD40 positive. How it is done:
B cells were isolated from the spleens of NOD mice. Sorted MHC-II+ cells were purified from total lymphocytes. Cells were stained with FITC-labeled 15 mer peptide, anti-CD40, and B cell markers CD19 and CD21. MHC-II+ cells were gated for CD19+ and CD21+ and then 15-mer peptide versus CD40 antibody was measured.

For series [5], the system named is NOD mice. Description: CD4/CD8 ratio in blood of peptide-treated NOD mice by flow cytometry. It counts as in vivo, mouse. How it is done: as §1
The subject of the next series is ApoE deficient mice. Description: Atherosclerosis in ApoE deficient mice on normal chow, aortic arch analysis. The series is classed as in vivo, mouse. How it is done: ApoE deficient mice on a normal chow diet were selected to receive a dose of 1 mg/kg of the 15-mer peptide (SEQ ID NO: 7) by IV tail injection, three times a week over a period of […], beginning at 9 weeks of age and also utilized a control. At 25 weeks, the animals were euthanized, weighed, and then had blood, spleen, and pancreas removed for analysis. The subjects were then perfused through cardiac puncture with 4% paraformaldehyde. Aortic arches were dissected, dehydrated in sucrose gradient and then flash frozen.
FIG. 17 provides an example of the lesser curvature of the aortic arch, defined proximally from the aortic outflow (AO). Of the segments seen in the trichrome stain, an intimal distance of […] was measured distally. The aortic-arch wall area subtended by this 2.5 mm stretch of the intima was calculated for each section of all mice, with maximal area of the inner-aortic-arch wall of each mouse used to compute averages per group. The luminal surface (L), aortic arch (AO), and innominate artery (I) are labelled in this FIG. 17.
Plaque was subdivided based on morphology of early lesions (observable as fatty streaks containing macrophage derived foam cells with varying degrees of lipid accumulation) compared with more advanced fibroatheromas (containing varying degrees of lipid or necrotic core and fibrous caps). All plaque within the designated 2.5 mm segment were included.

The subject of a further series is blood cells. The experiment in a line: Binding of biotin-conjugated 15-mer peptide to whole blood cells of type-I diabetic and control subjects. The arrangement: species or system human. As to conditions: type-I diabetes patients versus non-diabetic controls, absorbance at 405 nm. Here is the method: 1 ml of whole blood was obtained from each individual and incubated with biotin-conjugated, 15-mer peptide. The cells were then exposed to horseradish peroxidase (HRP)-avidin, washed and the absorbance at 405 nm determined using a spectrophotometer.

The test system of series [6] is NOD mice. The experiment in a line: Reversal of hyperglycemia in already diabetic NOD mice. The series is classed as in vivo, mouse. Here is the method:
Six mice from that had received the 6-mer peptide in Example 1, and that had subsequently developed diabetes, were injected intravenously with 100 ug of the 15-mer peptide. These mice were then given weekly injections of the 15-mer peptide into their tail veins, and their blood glucose levels monitored twice-weekly. The 15-mer peptide was administered for a total of ten weeks, after which the treatment was stopped.
(§2) At the onset of diabetes, six NOD mice were injected with 100 ug/ml of the 15-mer peptide (SEQ ID NO:9), resulting in the reversal of hyperglycemia in 80% of the recipients. Six weeks after reversal of hyperglycemia, mice were sacrificed and the pancreas removed for analysis. The pancreas was fixed, sectioned and then stained using an aldehyde/fuschsin stain that allows detection of insulin granules. Granulation of the tissue was scored as follows: 4=completely granulated; 3=75% of islet granulated; 2=50% of islet granulated, and peri-insulitis; 1=25% of islet granulated; 0=no insulin granules detected.

The subject of the next series is CD40+ T-cells. The experiment in a line: Binding of FITC-labeled 15-mer peptide to Th40 cells, flow cytometry. The arrangement: species or system mouse. As to conditions: lymphocytes of 9 week old NOD mice. How it is done:
Total lymphocytes were isolated from 9 week old NOD mice. The lymphocytes were incubated with […], anti-CD8, and an FITC-labeled 15-mer peptide, and then analyzed by flow cytometry. Cells were gated for CD4 (both CD4hi and CD4lo populations were included) and CD4 versus the 15-mer peptide.

For series [7], the system named is NOD mice. The experiment in a line: Insulin granulation of pancreas in NOD mice after reversal of hyperglycemia. The series is classed as in vivo, mouse. As to conditions: six weeks after reversal of hyperglycemia, versus irrelevant peptide. How it is done: as §2
Series [8] is described as follows: Clot study in whole human blood. As to conditions: dosing levels similar to murine studies. Here is the method: Whole human blood was administered the peptide in accordance with similar dosing levels to those used for murine studies.
The subject of series [9] is ApoE-/- mice. Description: Existing atherosclerotic disease in ApoE-/- mice, 4 weeks of treatment, plaque morphology. It counts as in vivo, mouse. How it is done:
In this study, six ApoE−/− mice received a normal chow diet from 0 to 20 weeks of age. At 20 weeks of age, three mice were randomly assigned to receive dose of 1 mg/kg of KGYY15 (15-mer—SEQ ID NO:7) by IV tail injection, once a week for a period of 4 weeks. Control mice received vehicle only. After 4 weeks of treatment, animals were euthanized then perfused through cardiac puncture with 4% paraformaldehyde. Aortic arches were dissected in surcrose gradient and flash frozen. Approximately fifty, […] longitudinal sections were obtained per mouse. Slides were treated with trichrome stain and analyzed using cellSens software for measurements. Total plaque was measured including 2.5 mm lesser curvature and innominate artery.

[10] abbreviates: trichrome staining, Image Pro Plus analysis.
[11] abbreviates: 1 mg/kg IV once a week for 4 weeks.

Three substances from patent US20200072837A1, “METHODS FOR PREVENTING, MODULATING AND/OR REDUCING CARDIOVASCULAR DISEASE” (OP-T LLC, priority 2018, published 2020) can be followed below.

Some results are limits rather than exact numbers.

Consider VLQWAKKGYYTMK [13-mer], for which the “development / onset of diabetes” value in the series on NOD mice [1] is “significant effects on the development of diabetes”.

On to KKGYYT [KGYY6], for which the “lesion areas, en-face Sudan IV stain” value in the series on ApoE-/- mice [2] (ApoE-/- mice, high fat diet 16 weeks, 1 mg/kg IV once a week for 4 weeks) is recorded as “significant reduction in lesion areas”. Besides, the “plaque volume (area under the curve), Paigen method” value in the series on ApoE-/- mice [2] (ApoE-/- mice, high fat diet, aortic root cross sections) is reported as “reduction in plaque volume under the curve”. For the same substance, in the series on ApoE-/- mice [2] (setting [10]), the “plaque composition: collagen” value is given as “increased collagen” and the “plaque composition: smooth muscle content” value was “reduced smooth muscle content”. For the same substance, the “development / onset of diabetes” value in the series with NOD mice [1] was “prevents diabetes onset in NOD mice”. Moreover, the “reduction in LDL cholesterol values” in the series on ApoE-/- mice [3] is listed as over 50%. In [4], the “production of IFNg” value was “varying degrees of reduction”, the “production of IL2” value is “varying degrees of reduction” and the “production of IL17a” value is reported as “varying degrees of reduction”.

On to “VLQWAKKGYYTMKSN (VLQWAKKGYYTMKSK) [15-mer, 15-mer peptide from mouse CD154]”, for which the “B cells that bound the peptide” value in the series on B cells worked out at 8%. In the series on NOD mice [5], the “compromise of the immune system as determined by the CD4/CD8 ratio” value is “did not result in compromise of the immune system”. Further, in the series on ApoE deficient mice (1 mg/kg IV three times a week), the atherosclerosis result is “abrogates atherosclerosis”. Further, the “total area of the 2.5 mm segment of the lesser curvature of the aortic arch” value with ApoE deficient mice (1 mg/kg IV three times a week from 9 weeks of age) is on record as “substantially reduced”. Moreover, the “total number of plaque” value in the series on ApoE deficient mice (1 mg/kg IV three times a week, plaque within 2.5 mm segment) is listed as “significantly decreased”. In the series with blood cells, the “peptide binding activity of blood cells” value is reported as “higher 15-mer peptide binding activity than cells from non-diabetic controls”. The “development / onset of diabetes” value with NOD mice [1] is given as “prevented the onset of diabetes”. In the series with NOD mice [1] (listed as KGYY15), the “development / onset of diabetes” value is “prevents diabetes onset in NOD mice”. In addition, in the series on NOD mice [6] (already diabetic NOD mice, 100 ug iv weekly for ten weeks), the reversal of hyperglycemia result is given as “can reverse hyperglycemia”. In the series on NOD mice [6] (diabetic NOD mice, treatment stopped after ten weeks), the “return of hyperglycemia after cessation of the treatment” value is at most 7 weeks. Besides, in the series on NOD mice [6] (six NOD mice injected at onset of diabetes), the “recipients with reversal of hyperglycemia” value was found to be 80%. Besides, the “CD40+ T-cells that bind the peptide” value in the series on CD40+ T-cells was 90%. Further, the “insulin granulation of the pancreas” value with NOD mice [7] is given as “preserved insulin granules in the majority of the mice”. Moreover, the “clotting of whole human blood” value in series [8] is reported as “does not modify or change the clotting of whole human blood significantly outside of normally recognized levels”. For the same substance, in the series on ApoE-/- mice [9] (setting [11]), the “average cap width (cap size)” value was “greater”, the “average core width (core size/plaque size)” value is recorded as “decreased” and the “cap to core ratio of advanced plaques” value is “reduced”. For the same substance, the “number of individual early plaques and advanced plaques” value in the series with ApoE-/- mice [9] (1 mg/kg IV once a week for 4 weeks from 20 weeks of age) is “reduced”.
